Consider four molecules from patent publication US20260250320A1, “LIPIDATED PEPTIDE INHIBITORS OF INTERLEUKIN-23 RECEPTOR” (Janssen Pharmaceutica NV, priority 2023, published 2026).

For test [1], the system named is IL-23-stimulated phosphorylated STAT3 in peripheral blood mononuclear cells (PBMCs). The test is described as follows: PBMC pSTAT3 Assay. The format is cell-based. To be noted: PBMCs from healthy donors; 30 min preincubation with peptide; IL-23 5 ng/mL for 30 min; phospho-STAT3 by MSD. The method in brief:
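Phospho-STAT3 quantified by Meso Scale assay in lysates of PBMCs exposed to IL-23 (5 ng/mL, 30 min, 37 °C) after 30 min peptide pretreatment. Cells were cryopreserved donor PBMCs activated 4 days with anti-CD3 plus IL-1β (100 ng/mL) and starved ~4 h; IC50 reported.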

For test [2], the target named is T1, IL-23R (Homo sapiens, UniProt Q5VWK5).
T1 construct: HEK293 cells containing IL-23R, IL-12Rβ1 and a firefly luciferase reporter gene driven by a STAT-inducible promoter (Promega); host or cells: HEK293
T1 sequence (Q5VWK5 24-629): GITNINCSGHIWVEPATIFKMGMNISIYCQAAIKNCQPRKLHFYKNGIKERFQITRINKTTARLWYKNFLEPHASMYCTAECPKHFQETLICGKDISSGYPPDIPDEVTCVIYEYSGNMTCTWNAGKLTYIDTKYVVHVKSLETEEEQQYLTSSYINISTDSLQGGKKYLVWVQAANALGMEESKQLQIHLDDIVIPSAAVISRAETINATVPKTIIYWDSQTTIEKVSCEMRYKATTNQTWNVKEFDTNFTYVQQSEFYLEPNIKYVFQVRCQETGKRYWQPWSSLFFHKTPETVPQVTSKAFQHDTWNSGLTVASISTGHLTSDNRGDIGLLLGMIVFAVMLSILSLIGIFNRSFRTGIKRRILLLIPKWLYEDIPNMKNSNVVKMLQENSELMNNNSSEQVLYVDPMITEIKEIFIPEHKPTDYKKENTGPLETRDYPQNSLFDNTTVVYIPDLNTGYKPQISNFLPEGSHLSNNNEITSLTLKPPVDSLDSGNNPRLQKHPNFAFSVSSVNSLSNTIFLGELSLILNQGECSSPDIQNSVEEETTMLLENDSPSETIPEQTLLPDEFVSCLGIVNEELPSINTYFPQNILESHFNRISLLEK
In words: IL23R Reporter Assay. It is filed as cell-based. The settings on record: HEK293 cells containing IL-23R, IL-12Rβ1 and STAT-inducible firefly luciferase reporter; 10 ng/mL IL-23 (EC90); 5 h. In outline:
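IC50 values were fitted with a 4-parameter Hill equation to luciferase signal, scaled between IL-23-only wells (0% inhibition) and 30 μM reference inhibitor (100%). The readout was a STAT-inducible reporter in IL-23R/IL-12Rβ1 HEK293 cells, stimulated with added 10 ng/mL IL-23 (EC90) for 5 h at 37° C and developed with BioGlo.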
On the technique in general: A reporter such as luciferase makes a cellular process visible.

Structures are written as SMILES. pIC50: −log10 of the molar value. *1 amine or outer side, *2 acyl side, *3 side chain or, on linkers, in order; H or OH if unused. Where a SMILES comes first, the peptide text is derived from it. Bridges are numbered along the chain shown (N, C = ends). Side-chain parts run from the residue outwards. [ ]: non-standard residue; d: D form. The star is where a group is joined. X23 = CN(CCOCCOCC(=O)N(C)CCOCCOCC(=O)*)C(=O)CC[C@H](C(=O)O)N(C)C(=O)CCCCCCCCCCCCCCCCC(=O)O; X11 = CN(CC(N)=O)C(=O)[C@H](Cc1cccnc1)NC(O)[C@H](CC(N)=O)N*; Me3N+(CH2)2O(CH2)2O(CH2)2CO = C[N+](C)(C)CCOCCOCCC(=O)*; Trp(7-Me) = Cc1cccc2c(C[C@H](N)C(=O)O)c[nH]c12; Hexanoyl(6-NMe3+) = C[N+](C)(C)CCCCCC(=O)*; C18 diacid = O=C(O)CCCCCCCCCCCCCCCCC(=O)*; γGlu = O=C(O)[C@H](CCC(=O)[*:2])N[*:1]; 2Nal = N[C@@H](Cc1ccc2ccccc2c1)C(=O)O; AEF = NCCOc1ccc(C[C@H](N)C(=O)O)cc1; 3Pal = N[C@@H](Cc1cccnc1)C(=O)O; Lys(Me) = CNCCCC[C@H](N)C(=O)O; NMeK = CN[C@@H](CCCCN)C(=O)O; Pen = CC(C)(S)[C@H](N)C(=O)O; Thp = NC1(C(=O)O)CCOCC1; X1 = C[N+](C)(C)CCCCC*; AEEA = NCCOCCOCC(=O)O; Sar = CNCC(=O)O

A word on the pIC50: it is the negative decadic logarithm of the IC50, by convention in mol/L. Regarding `CC(=O)NCCCC[C@@H]1NC(=O)[C@H](Cc2c[nH]c3c(C)cccc23)NC(=O)[C@H]([C@@H](C)O)NC(=O)[C@H](CC(N)=O)NC(=O)[C@@H](NC(=O)[C@@H](CCCNC(=N)N)NC(C)=O)C(C)(C)SSC(C)(C)[C@@H](C(=O)N[C@@H](Cc2ccc(OCCN)cc2)C(=O)N[C@@H](Cc2ccc3ccccc3c2)C(=O)NC2(C(=O)N[C@@H](CCC(=O)O)C(=O)N[C@@H](CC(N)=O)C(=O)N[C@@H](Cc3cccnc3)C(=O)N(C)[C@@H](CCCCNC(=O)COCCOCCN(C)C(=O)COCCOCCN(C)C(=O)CC[C@H](C(=O)O)N(C)C(=O)CCCCCCCCCCCCCCCCC(=O)O)C(N)=O)CCOCC2)NC1=O` [compound 80, MeCO-r-Pen(3)-N-T-7MeW-K(Ac)-Pen(3)-AEF-2Nal-THP-E-N-3Pya-NMeK(PEG2NMePEG2NMegENMeC18OH)-CONH2] (Ac-[dR][Pen]NT[Trp(7-Me)]K(Ac)[Pen][AEF][2Nal][Thp]EN[3Pal][NMeK](X23)-NH2; disulfide 2-7), the values for the pIC50 in test [1] and in test [2] were above 9.30 and 6.30 to 7.30, respectively.

As for `CC(=O)NCCCC[C@@H]1NC(=O)[C@H](Cc2c[nH]c3c(C)cccc23)NC(=O)[C@H]([C@@H](C)O)NC(=O)[C@H](CC(N)=O)NC(=O)[C@@H](NC(=O)[C@@H](CCCNC(=N)N)NC(=O)CCCCC[N+](C)(C)C)C(C)(C)SSC(C)(C)[C@@H](C(=O)N[C@@H](Cc2ccc(OCCN)cc2)C(=O)N[C@@H](Cc2ccc3ccccc3c2)C(=O)NC2(C(=O)N[C@@H](CCC(=O)O)C(=O)N[C@@H](CC(N)=O)C(=O)N[C@@H](Cc3cccnc3)C(=O)N(C)CC(=O)N[C@@H](CCCCNC(=O)COCCOCCNC(=O)COCCOCCNC(=O)CC[C@H](NC(=O)CCCCCCCCCCCCCCCCC(=O)O)C(=O)O)C(N)=O)CCOCC2)NC1=O` [compound 81, 5cpaCO-r-Pen(3)-N-T-7MeW-K(Ac)-Pen(3)-AEF-2Nal-THP-E-N-3Pya-Sar-K(PEG2PEG2gEC18OH)-CONH2] ({Hexanoyl(6-NMe3+)}-[dR][Pen]NT[Trp(7-Me)]K(Ac)[Pen][AEF][2Nal][Thp]EN[3Pal][Sar]K([AEEA-AEEA-γGlu-C18 diacid])-NH2; disulfide 2-7), the pIC50 in test [1] is above 9.30; in test [2] it was 6.30 to 7.30.

Consider `CC(=O)NCCCC[C@@H]1NC(=O)[C@H](Cc2c[nH]c3c(C)cccc23)NC(=O)[C@H]([C@@H](C)O)NC(=O)[C@H](CC(N)=O)NC(=O)[C@@H](NC(=O)[C@@H](CCCNC(=N)N)NC(=O)COCCOCCNC(=O)COCCOCCNC(=O)CC[C@H](NC(=O)CCCCCCCCCCCCCCCCC(=O)O)C(=O)O)C(C)(C)SSC(C)(C)[C@@H](C(=O)N[C@@H](Cc2ccc(OCCN)cc2)C(=O)N[C@@H](Cc2ccc3ccccc3c2)C(=O)NC2(C(=O)N[C@@H](CCCCN(C)C(=O)CCOCCOCC[N+](C)(C)C)C(=O)N[C@@H](CC(N)=O)C(O)N[C@@H](Cc3cccnc3)C(=O)N(C)CC(N)=O)CCOCC2)NC1=O` (stereo partly drawn) [compound 82, HOC18gEPEG2PEG2CO-r-Pen(3)-N-T-7MeW-K(Ac)-Pen(3)-AEF-2Nal-THP-K(NMecPEG3a)-N-3Pya-Sar-CONH2] ({C18 diacid-γGlu-AEEA-AEEA}-[dR][Pen]NT[Trp(7-Me)]K(Ac)[Pen][AEF][2Nal][Thp][Lys(Me)](Me3N+(CH2)2O(CH2)2O(CH2)2CO)-X11; disulfide 2-7), for which the pIC50 in test [1] was above 9.30; in test [2] it was above 7.30.

In the case of `CC(=O)NCCCC[C@@H]1NC(=O)[C@H](Cc2c[nH]c3c(C)cccc23)NC(=O)[C@H]([C@@H](C)O)NC(=O)[C@H](CC(N)=O)NC(=O)[C@@H](NC(=O)[C@@H](CCCNC(=N)N)NC(=O)COCCOCCNC(=O)COCCOCCNC(=O)CC[C@H](NC(=O)CCCCCCCCCCCCCCCCC(=O)O)C(=O)O)C(C)(C)SSC(C)(C)[C@@H](C(=O)N[C@@H](Cc2ccc(OCCCCC[N+](C)(C)C)cc2)C(=O)N[C@@H](Cc2ccc3ccccc3c2)C(=O)NC2(C(=O)N[C@@H](CCC(=O)O)C(=O)N[C@@H](CC(N)=O)C(=O)N[C@@H](Cc3cccnc3)C(=O)N(C)CC(N)=O)CCOCC2)NC1=O` [compound 83, HOC18gEPEG2PEG2CO-r-Pen(3)-N-T-7MeW-K(Ac)-Pen(3)-TMAPF-2Nal-THP-E-N-3Pya-Sar-CONH2] ({C18 diacid-γGlu-AEEA-AEEA}-[dR][Pen]NT[Trp(7-Me)]K(Ac)[Pen]Y(X1)[2Nal][Thp]EN[3Pal][Sar]-NH2; disulfide 2-7), the pIC50 is above 9.30 in test [1] and above 7.30 in test [2].
